In ChEMBL document CHEMBL2434921, “New synthetic aliphatic sulfonamido-quaternary ammonium salts as anticancer chemotherapeutic agents” (2013):
Calls of active or inactive are those of the source. The rule behind the calls is not given here.

Legend:
HCT-15 [1] = test: Growth inhibition of human HCT15 cells after 48 hrs by SRB assay; format: functional
[2] = biological target: Rho-related GTP-binding protein RhoB (Homo sapiens) (UniProt P62745); test: Transactivation of RhoB (unknown origin) transfected in human HeLa cells at 5 uM measured over 10 secs by dual luciferase reporter gene assay; format: cell-based
Chain of Rho-related GTP-binding protein RhoB (Homo sapiens) (P62745 whole entry): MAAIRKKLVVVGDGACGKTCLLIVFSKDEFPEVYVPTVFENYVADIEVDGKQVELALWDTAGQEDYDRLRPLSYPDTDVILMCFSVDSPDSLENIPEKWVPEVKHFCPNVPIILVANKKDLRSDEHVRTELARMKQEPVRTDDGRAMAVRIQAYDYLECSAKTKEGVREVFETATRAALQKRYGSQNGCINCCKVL

NUGC-3 [3] = test: Growth inhibition of human NUGC3 cells after 48 hrs by SRB assay; format: functional; conditions: NUGC-3, 48 h
PC-3 [4] = test: Growth inhibition of human PC3 cells after 48 hrs by SRB assay; format: functional; conditions: PC-3, 48 h
NCI-H23 [5] = test: Growth inhibition of human NCI-H23 cells after 48 hrs by SRB assay; format: functional; conditions: NCI-H23, 48 h
ACHN [6] = test: Growth inhibition of human ACHN cells after 48 hrs by SRB assay; format: functional
MDA-MB-231 [7] = test: Growth inhibition of human MDA-MB-231 cells after 48 hrs by SRB assay; format: functional; conditions: MDA-MB-231, 48 h
PC-3 [8] = test: Growth of human PC3 cells at 10 uM after 48 hrs by SRB assay; conditions: PC-3, 48 h
NUGC-3 [9] = test: Growth of human NUGC3 cells at 1 uM after 48 hrs by SRB assay; conditions: NUGC-3, 48 h
ACHN [10] = test: Growth of human ACHN cells at 10 uM after 48 hrs by SRB assay
HCT-15 [11] = test: Growth of human HCT15 cells at 3 uM after 48 hrs by SRB assay; conditions: HCT-15, 48 h
ACHN [12] = test: Growth of human ACHN cells at 0.1 uM after 48 hrs by SRB assay
ACHN [13] = test: Growth of human ACHN cells at 0.3 uM after 48 hrs by SRB assay
NUGC-3 [14] = test: Growth of human NUGC3 cells at 0.1 uM after 48 hrs by SRB assay; conditions: NUGC-3, 48 h
NUGC-3 [15] = test: Growth of human NUGC3 cells at 0.3 uM after 48 hrs by SRB assay; conditions: NUGC-3, 48 h
HCT-15 [16] = test: Growth of human HCT15 cells at 0.3 uM after 48 hrs by SRB assay; conditions: HCT-15, 48 h
NCI-H23 [17] = test: Growth of human NCI-H23 cells at 10 uM after 48 hrs by SRB assay; conditions: NCI-H23, 48 h
NCI-H23 [18] = test: Growth of human NCI-H23 cells at 0.3 uM after 48 hrs by SRB assay; conditions: NCI-H23, 48 h
MDA-MB-231 [19] = test: Growth of human MDA-MB-231 cells at 1 uM after 48 hrs by SRB assay; conditions: MDA-MB-231, 48 h
MDA-MB-231 [20] = test: Growth of human MDA-MB-231 cells at 10 uM after 48 hrs by SRB assay; conditions: MDA-MB-231, 48 h
MDA-MB-231 [21] = test: Growth of human MDA-MB-231 cells at 0.1 uM after 48 hrs by SRB assay; conditions: MDA-MB-231, 48 h
MDA-MB-231 [22] = test: Growth of human MDA-MB-231 cells at 3 uM after 48 hrs by SRB assay; values are per cent of control; conditions: MDA-MB-231, 48 h
PC-3 [23] = test: Growth inhibition of human PC3 cells at 1 uM after 48 hrs by SRB assay; values are per cent of control; conditions: PC-3, 48 h
PC-3 [24] = test: Growth inhibition of human PC3 cells at 3 uM after 48 hrs by SRB assay; values are per cent of control; conditions: PC-3, 48 h
ACHN [25] = test: Growth inhibition of human ACHN cells at 3 uM after 48 hrs by SRB assay; values are per cent of control
ACHN [26] = test: Growth inhibition of human ACHN cells at 1 uM after 48 hrs by SRB assay; values are per cent of control
NUGC-3 [27] = test: Growth inhibition of human NUGC3 cells at 3 uM after 48 hrs by SRB assay; values are per cent of control; conditions: NUGC-3, 48 h
PC-3 [28] = test: Growth inhibition of human PC3 cells at 0.1 uM after 48 hrs by SRB assay; values are per cent of control; conditions: PC-3, 48 h
PC-3 [29] = test: Growth inhibition of human PC3 cells at 0.3 uM after 48 hrs by SRB assay; values are per cent of control; conditions: PC-3, 48 h
HCT-15 [30] = test: Growth inhibition of human HCT15 cells at 1 uM after 48 hrs by SRB assay; values are per cent of control; conditions: HCT-15, 48 h
NUGC-3 [31] = test: Growth inhibition of human NUGC3 cells at 10 uM after 48 hrs by SRB assay; values are per cent of control; conditions: NUGC-3, 48 h
HCT-15 [32] = test: Growth inhibition of human HCT15 cells at 10 uM after 48 hrs by SRB assay; values are per cent of control; conditions: HCT-15, 48 h
NCI-H23 [33] = test: Growth inhibition of human NCI-H23 cells at 1 uM after 48 hrs by SRB assay; values are per cent of control; conditions: NCI-H23, 48 h
NCI-H23 [34] = test: Growth inhibition of human NCI-H23 cells at 3 uM after 48 hrs by SRB assay; values are per cent of control; conditions: NCI-H23, 48 h
HCT-15 [35] = test: Growth inhibition of human HCT15 cells at 0.1 uM after 48 hrs by SRB assay; values are per cent of control; conditions: HCT-15, 48 h
NCI-H23 [36] = test: Growth inhibition of human NCI-H23 cells at 0.1 uM after 48 hrs by SRB assay; values are per cent of control; conditions: NCI-H23, 48 h
MDA-MB-231 [37] = test: Growth inhibition of human MDA-MB-231 cells at 0.3 uM after 48 hrs by SRB assay; values are per cent of control; conditions: MDA-MB-231, 48 h

## CCCCCCCCCCCCCCCC(=O)N1CC[N+](C)(C)CC1
HCT-15 [1]; HCT-15, 48 h
  GI50: 580 nM
[2]
  Activity: Active
NUGC-3 [3]
  GI50: 290 nM
PC-3 [4]
  GI50: 480 nM

## C=CC[N+](C)(C)CCN(C)C(=O)CCCCCCCCCCCCC
NCI-H23 [5]
  GI50: 240 nM
HCT-15 [1]
  GI50: inactive
NUGC-3 [3]
  GI50: 140 nM
ACHN [6]
  GI50: 100 nM
MDA-MB-231 [7]
  GI50: 300 nM
PC-3 [4]
  GI50: 210 nM

## CCCCCCCCCCCCCCCCS(=O)(=O)NCC(C)(C)C[N+](C)(C)C
NCI-H23 [5]
  GI50: 740 nM
HCT-15 [1]; HCT-15, 48 h
  GI50: 560 nM
NUGC-3 [3]
  GI50: 430 nM
ACHN [6]
  GI50: 2210 nM
MDA-MB-231 [7]
  GI50: 1520 nM
PC-3 [4]
  GI50: 560 nM
PC-3 [8]
  growth, % of control at 10 µM: -14.6%
NUGC-3 [9]
  growth, % of control at 1 µM: 33.6%
ACHN [10]
  growth, % of control at 10 µM: 99.6%
HCT-15 [11]
  growth, % of control at 3 µM: 17.6%
ACHN [12]
  growth, % of control at 0.1 µM: 122%
ACHN [13]
  growth, % of control at 0.3 µM: 114%
NUGC-3 [14]
  growth, % of control at 0.1 µM: 106%
NUGC-3 [15]
  growth, % of control at 0.3 µM: 87.1%
HCT-15 [16]
  growth, % of control at 0.3 µM: 132%
NCI-H23 [17]
  growth, % of control at 10 µM: 0.7%
NCI-H23 [18]
  growth, % of control at 0.3 µM: 102%
MDA-MB-231 [19]
  growth, % of control at 1 µM: 73.6%
MDA-MB-231 [20]
  growth, % of control at 10 µM: 16.5%
MDA-MB-231 [21]
  growth, % of control at 0.1 µM: 95.6%
MDA-MB-231 [22]
  growth, % of control at 3 µM: 49.5%
PC-3 [23]
  growth, % of control at 1 µM: 51.8%
PC-3 [24]
  growth, % of control at 3 µM: 0.2%
ACHN [25]
  growth, % of control at 3 µM: 101%
ACHN [26]
  growth, % of control at 1 µM: 108%
NUGC-3 [27]
  growth, % of control at 3 µM: 14.7%
PC-3 [28]
  growth, % of control at 0.1 µM: 107%
PC-3 [29]
  growth, % of control at 0.3 µM: 102%
HCT-15 [30]
  growth, % of control at 1 µM: 46.1%
NUGC-3 [31]
  growth, % of control at 10 µM: 3%
HCT-15 [32]
  growth, % of control at 10 µM: 11.7%
NCI-H23 [33]
  growth, % of control at 1 µM: 54.1%
NCI-H23 [34]
  growth, % of control at 3 µM: 26.3%
HCT-15 [35]
  growth, % of control at 0.1 µM: 136%
NCI-H23 [36]
  growth, % of control at 0.1 µM: 104%
MDA-MB-231 [37]
  growth, % of control at 0.3 µM: 95%

## CCCCCCCCCCCCCCCCCCOP(=O)([O-])OC1CC[N+](C)(C)CC1 [PERIFOSINE]
NUGC-3 [3]
  GI50: 540 nM
PC-3 [4]
  GI50: 440 nM
